Laboratory results from the supplement of paper PMC10331698.
± gives the standard deviation of the averaged measurements.

What was measured:
Experiment in all cases: level (log10 ratio to DMSO vehicle control); higher = higher biomarker level / cell amount than vehicle control
Methotrexate = compound: CN(Cc1cnc2nc(N)nc(N)c2n1)c1ccc(C(=O)N[C@@H](CCC(=O)O)C(=O)O)cc1 [Methotrexate]; conditions: in DMSO
Method: (§1)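 BioMAP Diversity Plus panel of 12 human primary cell co-culture systems (3C, 4H, LPS, SAg, BT, BF4T, BE3C, CASM3C, HDF3CGF, KF3CT, MyoF, Mphg). Compounds were added 1 h before stimulation and left for 24 h (MyoF 48 h; BT 72 h for soluble read-outs or 6 d for IgG). Biomarkers were read by ELISA, cytotoxicity by SRB, PBMC viability and proliferation by Alamar Blue. Each well value was divided by the mean of 8 DMSO control wells on the same plate and log10 transformed; duplicate blinded samples were tested at 4 concentrations.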

[1] = compound: OCC(F)(F)C(F)(F)C(F)(F)C(F)(F)C(F)(F)C(F)(F)C(F)(F)C(F)(F)CO [1H,1H,10H,10H-Perfluorodecane-1,10-diol]; conditions: in DMSO
Method: as §1

Perfluoropinacol = compound: OC(C(F)(F)F)(C(F)(F)F)C(O)(C(F)(F)F)C(F)(F)F [Perfluoropinacol]; conditions: in DMSO
Method: as §1

[2] = compound: FC(F)(F)COC(OCC(F)(F)F)OCC(F)(F)F [tris(Trifluoroethoxy)methane]; conditions: in DMSO
Method: as §1

[3] = compound: Cc1ccc(S(=O)(=O)OCC(F)(F)C(F)(F)C(F)(F)C(F)(F)C(F)(F)C(F)F)cc1 [1H,1H,7H-Perfluoroheptyl 4-methylbenzenesulfonate]; conditions: in DMSO
Method: as §1

[4] = compound: OCCC(F)(F)C(F)(F)C(F)(F)C(F)(F)C(F)(F)C(F)(F)C(F)(F)C(F)(F)F [8:2 Fluorotelomer alcohol]; conditions: 6700 nM; in DMSO
Method: as §1

[5] = compound: C=C(C)C(=O)OCC(F)(F)C(F)(F)C(F)(F)F [2,2,3,3,4,4,4-Heptafluorobutyl methacrylate]; conditions: in DMSO
Method: as §1

Test System	level (log10) (Methotrexate; 1500 nM)	level (log10) (Methotrexate; 4400 nM)	level (log10) (Methotrexate; 13000 nM)	level (log10) (Methotrexate; 40000 nM)	level (log10) ([1]; 6700 nM)	level (log10) ([1]; 20000 nM)	level (log10) ([1]; 60000 nM)	level (log10) (Perfluoropinacol; 6700 nM)	level (log10) (Perfluoropinacol; 20000 nM)	level (log10) ([2]; 6700 nM)	level (log10) ([2]; 20000 nM)	level (log10) ([2]; 60000 nM)	level (log10) ([3]; 6700 nM)	level (log10) ([3]; 20000 nM)	level (log10) ([3]; 60000 nM)	level (log10) [4]	level (log10) ([5]; 6700 nM)	level (log10) ([5]; 20000 nM)	level (log10) ([5]; 60000 nM)
HDF3CGF:CD106/VCAM-1	0.028 ± 0.031	0.01 ± 0.03	0.0355 ± 0.069	-0.0225 ± 0.1	-0.038 ± 0.016	-0.0995 ± 0.073	-0.322	-0.089 ± 0.037	-0.228 ± 0.0014	0.0315 ± 0.018	-0.0275 ± 0.021	-0.0325 ± 0.059	-0.061 ± 0.013	-0.046 ± 0.016	-0.0335 ± 0.0035	-0.0265 ± 0.015	-0.023 ± 0.0042	-0.017 ± 0.03	-0.07 ± 0.028
lMphg:SRB	0.0015 ± 0.0064	-0.0005 ± 0.00071	-0.002 ± 0.0085	0.0055 ± 0.00071	-0.0025 ± 0.013	-0.014 ± 0.0057	-1.09	-0.0315 ± 0.0035	-0.144 ± 0.0064	-0.0035 ± 0.011	-0.0025 ± 0.0021	0.0045 ± 0.023	0.004 ± 0.013	-0.002 ± 0.0042	-0.0055 ± 0.00071	-0.02	-0.0075 ± 0.0092	-0.004 ± 0.0057	0.0005 ± 0.021
CASM3C:CXCL9/MIG	0.0375 ± 0.021	0.0225 ± 0.0092	0.0165 ± 0.026	0.0615 ± 0.035	-0.001	-0.0035 ± 0.005	-0.039	-0.013 ± 0.02	-0.0335 ± 0.011	0.0015 ± 0.012	-0.0115 ± 0.0064	-0.0145 ± 0.005	-0.0085 ± 0.011	-0.0195 ± 0.013	0.0135 ± 0.0021	0.0025 ± 0.026	-0.001 ± 0.011	0.005 ± 0.0099	0.0195 ± 0.0021
CASM3C:CD87/uPAR	0.0385 ± 0.037	0.033 ± 0.023	0.0585 ± 0.015	0.04 ± 0.048	-0.024 ± 0.016	-0.033 ± 0.031	-0.116	-0.0245 ± 0.015	-0.107 ± 0.018	-0.0095 ± 0.018	-0.007 ± 0.023	-0.021 ± 0.0085	-0.03 ± 0.024	-0.02 ± 0.016	-0.004 ± 0.0099	-0.018 ± 0.054	-0.018 ± 0.0099	-0.0235 ± 0.029	-0.018 ± 0.0028
HDF3CGF:CXCL8/IL-8	-0.0035 ± 0.011	-0.0075 ± 0.0064	0.0145 ± 0.0035	0.004 ± 0.0085	0.004 ± 0.013	-0.0055 ± 0.021	-0.081	0.025 ± 0.0071	0.02 ± 0.0028	-0.003 ± 0.0028	-0.0005 ± 0.005	0.002 ± 0.0099	-0.0045 ± 0.011	0.0065 ± 0.0035	0.0095 ± 0.0021	0.005 ± 0.0099	0.0005 ± 0.0021	-0.0045 ± 0.0092	0.006 ± 0.0028
KF3CT:CXCL10/IP-10	0.0025 ± 0.018	0.0015 ± 0.011	0.004 ± 0.011	-0.0005 ± 0.021	-0.006 ± 0.0042	-0.0195 ± 0.0078	-0.104	0.0025 ± 0.0035	-0.0205 ± 0.0064	0.005 ± 0.0042	-0.0045 ± 0.0064	-0.0025 ± 0.005	-0.009 ± 0.014	-0.0195 ± 0.0078	-0.016 ± 0.0099	-0.0355 ± 0.018	0.0055 ± 0.00071	-0.001 ± 0.0057	0.0085 ± 0.005
BE3C:MMP-1	-0.028 ± 0.024	-0.011 ± 0.044	0.034 ± 0.016	0.031 ± 0.014	0.054 ± 0.0071	0.103 ± 0.042	0.137	0.0275 ± 0.0021	-0.003 ± 0.0057	0.004 ± 0.059	0.004 ± 0.025	0.01 ± 0.0099	0.044 ± 0.0099	0.051 ± 0.038	0.094 ± 0.061	0.0275 ± 0.021	-0.012 ± 0.0014	-0.0055 ± 0.015	0.048 ± 0.014
lMphg:CD69	-0.03 ± 0.021	-0.0135 ± 0.036	-0.0325 ± 0.057	-0.034 ± 0.054	-0.003 ± 0.0099	-0.019 ± 0.033	-0.348	-0.124 ± 0.026	-0.256 ± 0.058	0.0225 ± 0.05	0.005 ± 0.035	0.0095 ± 0.042	-0.007 ± 0.016	-0.048 ± 0.027	-0.039 ± 0.062	-0.086 ± 0.035	-0.0035 ± 0.044	-0.0335 ± 0.025	-0.0615 ± 0.047
KF3CT:CXCL8/IL-8	0.002 ± 0.017	0 ± 0.021	-0.0085 ± 0.023	0.014 ± 0.011	-0.006 ± 0.021	0.0055 ± 0.028	-0.097	-0.018 ± 0.011	-0.005 ± 0.0042	0.002 ± 0.011	0.007 ± 0.013	0.012 ± 0.0014	-0.005 ± 0.0028	-0.103 ± 0.013	-0.04 ± 0.014	0.0035 ± 0.0035	-0.0045 ± 0.023	-0.0035 ± 0.015	-0.0035 ± 0.013
MyoF:SRB	0.012 ± 0.013	0.003	0.0125 ± 0.0064	-0.0005 ± 0.005	-0.012	-0.019 ± 0.017	-0.098	-0.012	-0.0445 ± 0.0021	-0.0045 ± 0.0035	-0.001 ± 0.0014	0.005 ± 0.0042	-0.004 ± 0.018	-0.021 ± 0.0085	-0.024 ± 0.0014	-0.0005 ± 0.015	-0.005 ± 0.016	-0.0005 ± 0.0021	0.0035 ± 0.011
3C:CD62E/E-Selectin	0.007 ± 0.0057	-0.0145 ± 0.0035	-0.004 ± 0.02	0.01 ± 0.011	-0.0065 ± 0.005	-0.0275 ± 0.0092	-0.082	-0.007 ± 0.013	-0.0605 ± 0.03	-0.022 ± 0.0014	-0.0185 ± 0.0078	-0.0245 ± 0.0035	-0.0085 ± 0.005	-0.03 ± 0.0057	-0.081 ± 0.016	-0.016 ± 0.0099	-0.005 ± 0.011	-0.014 ± 0.0042	-0.0015 ± 0.013
HDF3CGF:CD54/ICAM-1	-0.0015 ± 0.00071	0.0045 ± 0.005	0.0055 ± 0.013	-0.0065 ± 0.025	0.002 ± 0.027	0.005 ± 0.0028	-0.753	0.012 ± 0.011	0.005 ± 0.018	-0.0195 ± 0.00071	-0.013 ± 0.034	-0.008 ± 0.0057	0.0005 ± 0.016	0.0385 ± 0.042	0.026 ± 0.055	0.0315 ± 0.035	-0.008 ± 0.0071	-0.013 ± 0.0071	-0.007 ± 0.0099
KF3CT:MMP-9	0.017 ± 0.013	-0.001 ± 0.014	-0.0045 ± 0.04	0.0075 ± 0.019	0.005 ± 0.03	0.0465 ± 0.00071	-0.197	0.01 ± 0.018	-0.0245 ± 0.029	-0.0015 ± 0.016	-0.0105 ± 0.00071	0.004 ± 0.013	-0.014 ± 0.031	-0.073 ± 0.025	-0.0915 ± 0.03	-0.09 ± 0.027	-0.029	-0.0115 ± 0.00071	0.0085 ± 0.0092
MyoF:CXCL8/IL-8	0.0055 ± 0.028	0.0135 ± 0.016	-0.0035 ± 0.033	0.0105 ± 0.022	-0.0285 ± 0.0021	-0.033 ± 0.013	0.025	0.0295 ± 0.005	0.0265 ± 0.012	-0.0155 ± 0.035	-0.0125 ± 0.0078	0.0195 ± 0.015	-0.0065 ± 0.0078	-0.162 ± 0.022	-0.115 ± 0.025	0.023 ± 0.0014	-0.0125 ± 0.033	-0.017 ± 0.024	-0.014 ± 0.041
